Legend:
Assay type in all cases: cell-based, Nicotiana tabacum
H1 callus culture = assay: Callus growth on chlorsulfuron-supplemented medium; details: chlorsulfuron at 5 ppb (14 nM); further: key: Callus cultures capable of growth on this medium are designated R (resistant); S denotes sensitive callus cultures that did not grow in the presence of the herbicide
Experimental: (§1) Table 7, below, indicates sensitivity to chlorsulfuron of ALS activities in progeny of an S4/+ heterozygote. Data are presented as percent of ALS activity in the absence of chlorsulfuron. Each number represents the average of at least three independent experiments. Callus cultures initiated from the individual isolates were tested for growth on medium supplemented with chlorsulfuron at 5 ppb (14 nM).

[1] = system: Isolate 16 (S4/S4) callus culture; assay: Callus growth on chlorsulfuron-supplemented medium; details: chlorsulfuron at 5 ppb (14 nM); further: key: Callus cultures capable of growth on this medium are designated R (resistant); S denotes sensitive callus cultures that did not grow in the presence of the herbicide
Experimental: as §1

[2] = system: Isolate 23 (S4/+) callus culture; assay: Callus growth on chlorsulfuron-supplemented medium; details: chlorsulfuron at 5 ppb (14 nM); further: key: Callus cultures capable of growth on this medium are designated R (resistant); S denotes sensitive callus cultures that did not grow in the presence of the herbicide
Experimental: as §1

[3] = system: Isolate 9 (S4/+) callus culture; assay: Callus growth on chlorsulfuron-supplemented medium; details: chlorsulfuron at 5 ppb (14 nM); further: key: Callus cultures capable of growth on this medium are designated R (resistant); S denotes sensitive callus cultures that did not grow in the presence of the herbicide
Experimental: as §1

[4] = system: Isolate 27 (S4/S4) callus culture; assay: Callus growth on chlorsulfuron-supplemented medium; details: chlorsulfuron at 5 ppb (14 nM)
Experimental: as §1

[5] = system: Isolate 24 (S4/+) callus culture; assay: Callus growth on chlorsulfuron-supplemented medium; details: chlorsulfuron at 5 ppb (14 nM)
Experimental: as §1

[6] = system: Isolate 10 (S4/+) callus culture; assay: Callus growth on chlorsulfuron-supplemented medium; details: chlorsulfuron at 5 ppb (14 nM)
Experimental: as §1

[7] = system: Isolate 1 (+/+) callus culture; assay: Callus growth on chlorsulfuron-supplemented medium; details: chlorsulfuron at 5 ppb (14 nM)
Experimental: as §1

[8] = system: Isolate 7 (+/+) callus culture; assay: Callus growth on chlorsulfuron-supplemented medium; details: chlorsulfuron at 5 ppb (14 nM)
Experimental: as §1

[9] = system: Isolate 30 (S4/S4) callus culture; assay: Callus growth on chlorsulfuron-supplemented medium; details: chlorsulfuron at 5 ppb (14 nM)
Experimental: as §1

[10] = system: Isolate 7 (+/+) cell line; assay: Callus growth test; details: 14 days
Experimental: (§2) Callus growth tests were conducted substantially according to the following procedure. Approximately 50 mg callus tissue, grown on non-selective media, was spread over 7 cm diameter paper filter discs (Whatman No. 1), which were placed on the medium surface of petri dishes containing C1 agar media and varying concentrations of chlorsulfuron. The resulting cultures were incubated for 14 days at 25±1°, under fluorescent lamps programmed to provide a 16-hour photoperiod per day. At the conclusion of the incubation period, tissue was scraped from each filter disc and weighed. The final fresh weights were recorded, and means and standard errors of the means determined for all cases. The significance of differences between responses of individual cell lines to various concentrations of chlorsulfuron was determined at a probability level of 5% by a t-test for populations having different standard deviations, as described by Snedecor, et al., Statistical Methods (Iowa State University Press, Ames, Iowa, (1967), pp. 114-116).
(§3) The isolates tested were established from plants produced by self-fertilization of a S4/+ heterozygote produced by two successive backcrosses of a regenerated mutant plant to normal plants. In addition, growth responses were determined for cell cultures initiated from two individuals of the same genotype with respect to the S4 mutation. The genotypes of these cell lines were confirmed by progeny analyses of the plants from which they were derived. These precautions were intended to eliminate background variability which might otherwise obscure the effects of the resistance mutation.

[11] = system: Isolate 24 (S4/+) cell line; assay: Callus growth test; details: 14 days
Experimental: as §2, §3

[12] = system: Isolate 30 (S4/S4) cell line; assay: Callus growth test; details: 14 days
Experimental: as §2, §3

[13] = system: Isolate 16 (S4/S4) cell line; assay: Callus growth test
Experimental: as §2, §3

[14] = system: Isolate 23 (S4/+) cell line; assay: Callus growth test; details: 14 days
Experimental: as §2, §3

[15] = system: Isolate 1 (+/+) cell line; assay: Callus growth test
Experimental: as §2, §3

[16] = Nicotiana tabacum, 336 h, chlorsulfuron 0.3 ppb, read-out: % of fresh weight at 0 ppb
[17] = Nicotiana tabacum, 336 h, chlorsulfuron 1.0 ppb, read-out: % of fresh weight at 0 ppb
[18] = Nicotiana tabacum, 336 h, chlorsulfuron 3.0 ppb, read-out: % of fresh weight at 0 ppb
[19] = Nicotiana tabacum, 336 h, chlorsulfuron 10.0 ppb, read-out: % of fresh weight at 0 ppb
[20] = Nicotiana tabacum, 336 h, chlorsulfuron 30.0 ppb, read-out: % of fresh weight at 0 ppb
[21] = Nicotiana tabacum, 336 h, chlorsulfuron 1.0 ppb, 14 days, read-out: % of fresh weight at 0 ppb
[22] = Nicotiana tabacum, 336 h, chlorsulfuron 3.0 ppb, 14 days, read-out: % of fresh weight at 0 ppb

## COc1nc(C)nc(NC(=O)NS(=O)(=O)c2ccccc2Cl)n1 [Chlorsulfuron, chlorsulfuron]
H1 callus culture
  Callus Phenotype: S
[1]
  Callus Phenotype: R
[2]
  Callus Phenotype: R
[3]
  Callus Phenotype: R
[4]
  Callus Phenotype: R
[5]
  Callus Phenotype: R
[6]
  Callus Phenotype: R
[7]
  Callus Phenotype: S
[8]
  Callus Phenotype: S
[9]
  Callus Phenotype: R
[10]; Nicotiana tabacum, 336 h, chlorsulfuron 0.1 ppb, read-out: % of fresh weight at 0 ppb
  activity at 0.0001 µg/mL: 93.1%
[10]; [16]
  activity at 0.0003 µg/mL: 59.8%
[10]; [17]
  activity at 0.001 µg/mL: 9.2%
[10]; [18]
  activity at 0.003 µg/mL: 2.5%
[10]; chlorsulfuron 0.1 ppb
  Fr. Wt.: 2170 ± 94 mg
[10]; chlorsulfuron 0.3 ppb
  Fr. Wt.: 1395 ± 116 mg
[10]; chlorsulfuron 1.0 ppb
  Fr. Wt.: 215 ± 33 mg
[10]; chlorsulfuron 3.0 ppb
  Fr. Wt.: 58 ± 4 mg
[11]; [16]
  activity at 0.0003 µg/mL: 98.9%
[11]; [17]
  activity at 0.001 µg/mL: 87.5%
[11]; [18]
  activity at 0.003 µg/mL: 73%
[11]; [19]
  activity at 0.01 µg/mL: 76.4%
[11]; [20]
  activity at 0.03 µg/mL: 55.1%
[11]; chlorsulfuron 0.1 ppb
  Fr. Wt.: 2895 ± 187 mg
[11]; chlorsulfuron 0.3 ppb
  Fr. Wt.: 2842 ± 124 mg
[11]; chlorsulfuron 1.0 ppb
  Fr. Wt.: 2515 ± 155 mg
[11]; chlorsulfuron 3.0 ppb
  Fr. Wt.: 2099 ± 129 mg
[11]; chlorsulfuron 10.0 ppb
  Fr. Wt.: 2196 ± 235 mg
[11]; chlorsulfuron 30.0 ppb
  Fr. Wt.: 1585 ± 129 mg
[12]; [17]
  activity at 0.001 µg/mL: 98.4%
[12]; [20]
  activity at 0.03 µg/mL: 90.3%
[12]; chlorsulfuron 0.1 ppb
  Fr. Wt.: 3235 ± 159 mg
[12]; chlorsulfuron 0.3 ppb
  Fr. Wt.: 3157 ± 76 mg
[12]; chlorsulfuron 1.0 ppb
  Fr. Wt.: 2707 ± 250 mg
[12]; chlorsulfuron 3.0 ppb
  Fr. Wt.: 3287 ± 136 mg
[12]; chlorsulfuron 10.0 ppb
  Fr. Wt.: 2975 ± 139 mg
[12]; chlorsulfuron 30.0 ppb
  Fr. Wt.: 2486 ± 170 mg
[13]; [21]
  activity at 0.001 µg/mL: 95.8%
[13]; [22]
  activity at 0.003 µg/mL: 90%
[13]; Nicotiana tabacum, 336 h, chlorsulfuron 10.0 ppb, 14 days, read-out: % of fresh weight at 0 ppb
  activity at 0.01 µg/mL: 95.5%
[13]; Nicotiana tabacum, 336 h, chlorsulfuron 30.0 ppb, 14 days, read-out: % of fresh weight at 0 ppb
  activity at 0.03 µg/mL: 79.9%
[13]; both homozygous mutant lines (Isolates 16 and 30), concentrations below 30 ppb
  significance of growth inhibition (t-test, 5%): neither homozygous mutant cell was significantly inhibited
[13]; chlorsulfuron 0.1 ppb, 14 days
  Fr. Wt.: 3755 ± 259 mg
[13]; chlorsulfuron 0.3 ppb, 14 days
  Fr. Wt.: 3778 ± 219 mg
[13]; chlorsulfuron 1.0 ppb, 14 days
  Fr. Wt.: 3148 ± 196 mg
[13]; chlorsulfuron 3.0 ppb, 14 days
  Fr. Wt.: 2958 ± 161 mg
[13]; chlorsulfuron 10.0 ppb, 14 days
  Fr. Wt.: 3171 ± 260 mg
[13]; chlorsulfuron 30.0 ppb, 14 days
  Fr. Wt.: 2625 ± 202 mg
[13]; homozygous lines at 30 ppb versus Isolate 7 at 0.3 ppb
  increase of tolerance of cultured cells by S4 mutation: at least 100 fold
[14]; [16]
  activity at 0.0003 µg/mL: 95.8%
[14]; [17]
  activity at 0.001 µg/mL: 93.8%
[14]; [18]
  activity at 0.003 µg/mL: 89.9%
[14]; [19]
  activity at 0.01 µg/mL: 57.6%
[14]; [20]
  activity at 0.03 µg/mL: 28.1%
[14]; chlorsulfuron 0.1 ppb
  Fr. Wt.: 2803 ± 153 mg
[14]; chlorsulfuron 0.3 ppb
  Fr. Wt.: 2559 ± 174 mg
[14]; chlorsulfuron 1.0 ppb
  Fr. Wt.: 2505 ± 134 mg
[14]; chlorsulfuron 3.0 ppb
  Fr. Wt.: 2401 ± 218 mg
[14]; chlorsulfuron 10.0 ppb
  Fr. Wt.: 1537 ± 90 mg
[14]; chlorsulfuron 30.0 ppb
  Fr. Wt.: 749 ± 54 mg
[15]; 0.1 ppb chlorsulfuron
  significance of growth inhibition (t-test, 5%): significantly inhibited
[15]; Nicotiana tabacum, 336 h, chlorsulfuron 0.1 ppb, 14 days, read-out: % of fresh weight at 0 ppb
  activity at 0.0001 µg/mL: 76.7%
[15]; Nicotiana tabacum, 336 h, chlorsulfuron 0.3 ppb, 14 days, read-out: % of fresh weight at 0 ppb
  activity at 0.0003 µg/mL: 40.4%
[15]; [21]
  activity at 0.001 µg/mL: 3.6%
[15]; [22]
  activity at 0.003 µg/mL: 1.8%
[15]; chlorsulfuron 0.1 ppb, 14 days
  Fr. Wt.: 2287 ± 198 mg
[15]; chlorsulfuron 0.3 ppb, 14 days
  Fr. Wt.: 1204 ± 107 mg
[15]; chlorsulfuron 1.0 ppb, 14 days
  Fr. Wt.: 106 ± 9 mg
[15]; chlorsulfuron 3.0 ppb, 14 days
  Fr. Wt.: 55 ± 3 mg

— patent US4774381A, “Herbicide resistant tobacco” (E. I. Du Pont de Nemours and Company, priority 1985, dated 1988)
